{
  "source": "ChEMBL document CHEMBL5030514",
  "about": "“Discovery of Anti-TNBC Agents Targeting PTP1B: Total Synthesis, Structure-Activity Relationship, In Vitro and In Vivo Investigations of Jamunones” (J Med Chem, 2021)",
  "key": {"MCF7 [1]": {"system": "MCF7", "experiment": "Antiproliferative activity against human MCF-7 cells measured by MTT assay", "type": "functional, cell-based"}, "MDA-MB-231 [2]": {"system": "MDA-MB-231", "experiment": "Cytotoxicity against human MDA-MB-231 cells measured by MTT assay", "type": "functional, cell-based"}, "MCF7 [3]": {"system": "MCF7", "experiment": "Cytotoxicity against human MCF-7 cells measured by MTT assay", "type": "functional, cell-based"}, "[4]": {"experiment": "Selective index, ratio of IC50 for human 293T cells to IC50 of MDA-MB-231 cells", "type": "toxicity", "conditions": "293T cells versus MDA-MB-231 cells, read-out: Selectivity Index"}, "[5]": {"experiment": "Selective index, ratio of IC50 for HUVEC cells to IC50 of MDA-MB-231 cells", "type": "toxicity", "conditions": "human, HUVEC cells versus MDA-MB-231 cells; read-out: Selectivity Index"}, "[6]": {"experiment": "Selective index, ratio of IC50 for HUVEC cells to IC50 of MCF-7 cells", "type": "toxicity", "conditions": "human, HUVEC cells versus MCF-7 cells; read-out: Selectivity Index"}, "MCF7 [7]": {"system": "MCF7", "experiment": "Antiproliferative activity against human MCF-7 cells assessed as effect on cell viability at 1.67-15 uM for 24 hrs measured by MTT assay", "type": "functional, cell-based"}, "MCF7 [8]": {"system": "MCF7", "experiment": "Induction of mitochondrial apoptosis in human MCF-7 cells assessed as chromatin shrinkage by Hoechst 33258 staining based fluorescence microscopic assay", "type": "functional, cell-based"}, "MDA-MB-231 [9]": {"system": "MDA-MB-231", "experiment": "Induction of mitochondrial apoptosis in human MDA-MB-231 cells assessed as total apoptotic cells by fluorescein isothiocyanate -annexin V/PI double staining based flow cytometric analysis (reference value: 3.5%)", "type": "functional"}, "MDA-MB-231 [10]": {"system": "MDA-MB-231", "experiment": "Induction of mitochondrial apoptosis in human MDA-MB-231 cells assessed as accumulation of reactive oxygen species by flow cytometry", "type": "functional, cell-based"}, "MCF7 [11]": {"system": "MCF7", "experiment": "Induction of mitochondrial apoptosis in human MCF-7 cells assessed as accumulation of reactive oxygen species by flow cytometry", "type": "functional, cell-based"}, "MDA-MB-231 [12]": {"system": "MDA-MB-231", "experiment": "Induction of mitochondrial apoptosis in human MDA-MB-231 cells assessed as decrease in mitochondrial membrane potential levels at 5 uM measured after 24 hrs by flow cytometry", "type": "functional", "parameters": "scale not given: the % may be the effect or the level left"}, "MDA-MB-231 [13]": {"system": "MDA-MB-231", "experiment": "Induction of apoptosis in human MDA-MB-231 cells assessed as increase in Bax protein expression at 0.56 to 5 uM measured after 24 hrs by Western blot analysis", "type": "functional, cell-based", "conditions": "dose 0.56-5 µM"}, "MDA-MB-231 [14]": {"system": "MDA-MB-231", "experiment": "Induction of apoptosis in human MDA-MB-231 cells assessed as decrease in Bcl-2 level at 0.56 to 5 uM measured after 24 hrs by Western blot analysis", "type": "functional, cell-based", "conditions": "dose 0.56-5 µM"}, "MDA-MB-231 [15]": {"system": "MDA-MB-231", "experiment": "Cell cycle arrest in human MDA-MB-231 cells assessed as accumulation of cells at G0/G1 phase at 5 uM measured after 24 hrs by propidium iodide staining based flow cytometry (reference value: 44%)", "type": "functional"}, "MCF7 [16]": {"system": "MCF7", "experiment": "Cell cycle arrest in human MCF-7 cells assessed as accumulation of cells at G0/G1 phase at 15 uM measured after 24 hrs by propidium iodide staining based flow cytometry (reference value: 51.7%)", "type": "functional"}, "MDA-MB-231 [17]": {"system": "MDA-MB-231", "experiment": "Cell cycle arrest in human MDA-MB-231 cells assessed as downregulation of cyclin D3 expression by Western blot analysis", "type": "functional, cell-based"}, "MCF7 [18]": {"system": "MCF7", "experiment": "Cell cycle arrest in human MCF-7 cells assessed as downregulation of cyclin D1 expression by Western blot analysis", "type": "functional, cell-based"}, "MCF7 [19]": {"system": "MCF7", "experiment": "Cell cycle arrest in human MCF-7 cells assessed as downregulation of CDK2 expression by Western blot analysis", "type": "functional, cell-based"}, "MCF7 [20]": {"system": "MCF7", "experiment": "Cell cycle arrest in human MCF-7 cells assessed as downregulation of CDK6 expression by Western blot analysis", "type": "functional, cell-based"}, "MDA-MB-231 [21]": {"system": "MDA-MB-231", "experiment": "Inhibition of PTP1B expression in human MDA-MB-231 cells by Western blot analysis", "type": "functional, cell-based"}, "MDA-MB-231 [22]": {"system": "MDA-MB-231", "experiment": "Inhibition of PI3K p85 phosphorylation in human MDA-MB-231 cells by Western blot analysis", "type": "cell-based"}, "MDA-MB-231 [23]": {"system": "MDA-MB-231", "experiment": "Inhibition of PI3K in human MDA-MB-231 cells assessed as Akt phosphorylation by Western blot analysis", "type": "cell-based"}, "[24]": {"experiment": "Toxicity in human MDA-MB-231 cells xenografted in BALB/c nude mouse assessed as change in body weight at 15 to 30 mg/kg, ip administered once for every other day for 20 days relative to control", "type": "organism-based", "conditions": "in vivo, 480 h, dose 15-30 mg/kg, time 20 day"}, "MDA-MB-231 [25]": {"system": "MDA-MB-231", "experiment": "Antitumour activity against human MDA-MB-231 cells xenografted in BALB/c nude mouse assessed as upregulation of cleaved poly(ADP-ribose) polymerase level at 15 to 30 mg/kg, ip administered once for every other day for 20 days by Western blot analysis", "type": "functional, organism-based", "conditions": "dose 15-30 mg/kg, time 20.0 day"}, "MDA-MB-231 [26]": {"system": "MDA-MB-231", "experiment": "Antitumour activity against human MDA-MB-231 cells xenografted in BALB/c nude mouse assessed as downregulation of cyclin D3 level at 15 to 30 mg/kg, ip administered once for every other day for 20 days by Western blot analysis", "type": "functional, organism-based", "conditions": "dose 15-30 mg/kg, time 20.0 day"}, "MDA-MB-231 [27]": {"system": "MDA-MB-231", "experiment": "Antitumour activity against human MDA-MB-231 cells xenografted in BALB/c nude mouse assessed as downregulation of Bcl-2 level at 15 to 30 mg/kg, ip administered once for every other day for 20 days by Western blot analysis", "type": "functional, organism-based", "conditions": "dose 15-30 mg/kg, time 20.0 day"}, "MCF7 [28]": {"system": "MCF7", "experiment": "Effect on PI3K p85 expression in human MCF7 cells by Western blot analysis", "type": "functional, cell-based"}, "MCF7 [29]": {"system": "MCF7", "experiment": "Effect on Akt expression in human MCF7 cells by Western blot analysis", "type": "functional, cell-based"}, "MCF7 [30]": {"system": "MCF7", "experiment": "Inhibition of PI3K in human MCF7 assessed as Akt phosphorylation by Western blot analysis"}, "MDA-MB-231 [31]": {"system": "MDA-MB-231", "experiment": "Induction of mitochondrial apoptosis in human MDA-MB-231 cells assessed as late apoptotic cells at 5 uM measured after 24 hrs by FITC -annexin V/PI double staining based flow cytometric analysis (reference value: 2.3%)", "type": "functional"}, "MCF7 [32]": {"system": "MCF7", "experiment": "Induction of mitochondrial apoptosis in human MCF7 cells assessed as viable cells at 15 uM measured after 24 hrs by FITC -annexin V/PI double staining based flow cytometric analysis (reference value: 93.2%)", "type": "functional", "conditions": "read-out: Activity"}, "MCF7 [33]": {"system": "MCF7", "experiment": "Induction of mitochondrial apoptosis in human MCF7 cells assessed as late apoptotic cells at 15 uM measured after 24 hrs by FITC -annexin V/PI double staining based flow cytometric analysis (reference value: 1.1%)", "type": "functional"}, "MCF7 [34]": {"system": "MCF7", "experiment": "Cell cycle arrest in human MCF7 cells assessed as accumulation of cells at G2/M phase at 15 uM measured after 24 hrs by propidium iodide staining based flow cytometry (reference value: 31%)", "type": "functional"}, "[35]": {"target": "T1, Tyrosine-protein phosphatase non-receptor type 1 (Homo sapiens, UniProt P18031)", "T1 sequence (P18031 whole entry)": "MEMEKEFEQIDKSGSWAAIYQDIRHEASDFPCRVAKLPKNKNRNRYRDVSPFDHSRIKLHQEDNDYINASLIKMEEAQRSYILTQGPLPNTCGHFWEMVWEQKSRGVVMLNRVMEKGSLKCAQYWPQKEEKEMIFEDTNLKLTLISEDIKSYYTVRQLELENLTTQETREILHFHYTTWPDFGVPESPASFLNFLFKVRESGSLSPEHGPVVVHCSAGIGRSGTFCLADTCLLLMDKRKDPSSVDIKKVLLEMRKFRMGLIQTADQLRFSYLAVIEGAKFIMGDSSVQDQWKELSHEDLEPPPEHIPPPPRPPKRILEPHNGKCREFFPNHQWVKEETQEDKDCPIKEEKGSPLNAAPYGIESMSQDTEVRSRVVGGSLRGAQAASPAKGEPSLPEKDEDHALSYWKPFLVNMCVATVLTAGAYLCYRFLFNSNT", "experiment": "Inhibition of PTP1B (unknown origin)"}},
  "note": "The source made the active and inactive calls. No cut-off for these calls is given here.",
  "data": [
    {"molecule": "CCCC/C=C/CCCCCCCCCC1(O)CC(=O)c2c(O)c(C)c(O)c(C)c2O1", "note": "(stereo not given)", "values": [
      {"measurement": "IC50", "setting": "MCF7 [1]", "result": 17.5, "unit": "µM"},
      {"measurement": "IC50", "setting": "MDA-MB-231 [2]", "result": 6.79, "unit": "µM"},
      {"measurement": "IC50", "setting": "MCF7 [3]", "result": 17.5, "unit": "µM"},
      {"measurement": "selectivity ratio", "setting": "[4]", "result": 5.35},
      {"measurement": "selectivity ratio", "setting": "[5]", "result": 6.78},
      {"measurement": "selectivity ratio", "setting": "[6]", "result": 2.64},
      {"measurement": "Activity", "setting": "MCF7 [7]", "result": "inactive"},
      {"measurement": "Activity", "setting": "MCF7 [8]", "result": "Active"},
      {"measurement": "Activity", "setting": "MDA-MB-231 [9]", "result": 11.8, "unit": "%"},
      {"measurement": "Activity", "setting": "MDA-MB-231 [10]", "result": "Active"},
      {"measurement": "Activity", "setting": "MCF7 [11]", "result": "Active"},
      {"measurement": "Activity", "setting": "MDA-MB-231 [12]", "result": 62.2, "unit": "%"},
      {"measurement": "Activity", "setting": "MDA-MB-231 [13]", "result": "Dose-Dependent Effect"},
      {"measurement": "Activity", "setting": "MDA-MB-231 [14]", "result": "Dose-Dependent Effect"},
      {"measurement": "Activity", "setting": "MDA-MB-231 [15]", "result": 62.4, "unit": "%"},
      {"measurement": "Activity", "setting": "MCF7 [16]", "result": 66.8, "unit": "%"},
      {"measurement": "Activity", "setting": "MDA-MB-231 [17]", "result": "Dose-Dependent Effect"},
      {"measurement": "Activity", "setting": "MCF7 [18]", "result": "Dose-Dependent Effect"},
      {"measurement": "Activity", "setting": "MCF7 [19]", "result": "Dose-Dependent Effect"},
      {"measurement": "Activity", "setting": "MCF7 [20]", "result": "Dose-Dependent Effect"},
      {"measurement": "Activity", "setting": "MDA-MB-231 [21]", "result": "Active"},
      {"measurement": "inhibition", "setting": "MDA-MB-231 [22]", "result": "Dose-Dependent Effect"},
      {"measurement": "inhibition", "setting": "MDA-MB-231 [23]", "result": "Dose-Dependent Effect"},
      {"measurement": "Activity", "setting": "[24]", "result": "Not Active"},
      {"measurement": "Activity", "setting": "MDA-MB-231 [25]", "result": "Active"},
      {"measurement": "Activity", "setting": "MDA-MB-231 [26]", "result": "Active"},
      {"measurement": "Activity", "setting": "MDA-MB-231 [27]", "result": "Active"},
      {"measurement": "Activity", "setting": "MCF7 [28]", "result": "inactive"},
      {"measurement": "Activity", "setting": "MCF7 [29]", "result": "inactive"},
      {"measurement": "inhibition", "setting": "MCF7 [30]", "result": "Dose-Dependent Effect"},
      {"measurement": "Activity", "setting": "MDA-MB-231 [31]", "result": 7, "unit": "%"},
      {"measurement": "viability at 15 µM", "setting": "MCF7 [32]", "result": 78.7, "unit": "%"},
      {"measurement": "Activity", "setting": "MCF7 [33]", "result": 8.9, "unit": "%"},
      {"measurement": "Activity", "setting": "MCF7 [34]", "result": 22.7, "unit": "%"},
      {"measurement": "IC50", "setting": "[35]", "result": 1.8, "unit": "µM"}
    ]}
  ]
}
